Assay results as given in ChEMBL document CHEMBL4828768, “Talaromynoids A-I, Highly Oxygenated Meroterpenoids from the Marine-Derived Fungus Talaromyces purpureogenus SCSIO 41517 and Their Lipid Accumulation Inhibitory Activities” (J Nat Prod, 2021).
The source made the active and inactive calls. The calls are words filed in the database; no cut-off is given here.

How the values were obtained:
[1] = Reduction in intracellular triglyceride accumulation in mouse 3T3-L1 cells measured after 3 days; format: functional, cell-based; conditions: 3T3-L1, 72 h
[2] = test system: 3T3-L1; test: (§1) Reduction in intracellular triglyceride accumulation in mouse 3T3-L1 cells at 10 uM measured after 3 days; format: functional; conditions: time 3.0 day
[3] = target: T1, Tyrosine-protein phosphatase non-receptor type 11 (Homo sapiens) (UniProt Q06124); test: Inhibition of human recombinant SHP2 expressed in Escherichia coli assessed as inhibition of phosphatase activity by measuring p-nitrophenyl phosphate at 6.7 microg/ml measured after 60 mins; conditions: dose 6.7 µg/ml
T1 sequence (whole entry): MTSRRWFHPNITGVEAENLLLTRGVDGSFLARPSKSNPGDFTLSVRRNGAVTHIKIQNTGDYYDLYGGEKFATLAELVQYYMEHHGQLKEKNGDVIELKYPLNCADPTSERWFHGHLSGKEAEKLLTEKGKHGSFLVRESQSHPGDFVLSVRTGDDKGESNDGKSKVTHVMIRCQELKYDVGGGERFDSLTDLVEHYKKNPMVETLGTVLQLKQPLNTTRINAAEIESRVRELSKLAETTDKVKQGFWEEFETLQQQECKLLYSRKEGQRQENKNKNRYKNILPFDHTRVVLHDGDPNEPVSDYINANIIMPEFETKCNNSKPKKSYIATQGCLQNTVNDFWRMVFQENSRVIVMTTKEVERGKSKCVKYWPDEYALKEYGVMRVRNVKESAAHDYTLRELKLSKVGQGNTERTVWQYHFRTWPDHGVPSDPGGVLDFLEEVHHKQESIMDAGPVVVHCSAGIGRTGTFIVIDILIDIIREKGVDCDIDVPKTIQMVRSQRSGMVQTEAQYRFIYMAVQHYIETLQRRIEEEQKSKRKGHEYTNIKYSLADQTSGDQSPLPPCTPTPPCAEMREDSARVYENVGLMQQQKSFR

[4] = target: T2, Receptor-type tyrosine-protein phosphatase C (Homo sapiens) (UniProt P08575); test: Inhibition of human recombinant CD45 expressed in Escherichia coli assessed as inhibition of phosphatase activity by measuring p-nitrophenyl phosphate at 6.7 microg/ml measured after 60 mins; conditions: dose 6.7 µg/ml
T2 sequence (whole entry): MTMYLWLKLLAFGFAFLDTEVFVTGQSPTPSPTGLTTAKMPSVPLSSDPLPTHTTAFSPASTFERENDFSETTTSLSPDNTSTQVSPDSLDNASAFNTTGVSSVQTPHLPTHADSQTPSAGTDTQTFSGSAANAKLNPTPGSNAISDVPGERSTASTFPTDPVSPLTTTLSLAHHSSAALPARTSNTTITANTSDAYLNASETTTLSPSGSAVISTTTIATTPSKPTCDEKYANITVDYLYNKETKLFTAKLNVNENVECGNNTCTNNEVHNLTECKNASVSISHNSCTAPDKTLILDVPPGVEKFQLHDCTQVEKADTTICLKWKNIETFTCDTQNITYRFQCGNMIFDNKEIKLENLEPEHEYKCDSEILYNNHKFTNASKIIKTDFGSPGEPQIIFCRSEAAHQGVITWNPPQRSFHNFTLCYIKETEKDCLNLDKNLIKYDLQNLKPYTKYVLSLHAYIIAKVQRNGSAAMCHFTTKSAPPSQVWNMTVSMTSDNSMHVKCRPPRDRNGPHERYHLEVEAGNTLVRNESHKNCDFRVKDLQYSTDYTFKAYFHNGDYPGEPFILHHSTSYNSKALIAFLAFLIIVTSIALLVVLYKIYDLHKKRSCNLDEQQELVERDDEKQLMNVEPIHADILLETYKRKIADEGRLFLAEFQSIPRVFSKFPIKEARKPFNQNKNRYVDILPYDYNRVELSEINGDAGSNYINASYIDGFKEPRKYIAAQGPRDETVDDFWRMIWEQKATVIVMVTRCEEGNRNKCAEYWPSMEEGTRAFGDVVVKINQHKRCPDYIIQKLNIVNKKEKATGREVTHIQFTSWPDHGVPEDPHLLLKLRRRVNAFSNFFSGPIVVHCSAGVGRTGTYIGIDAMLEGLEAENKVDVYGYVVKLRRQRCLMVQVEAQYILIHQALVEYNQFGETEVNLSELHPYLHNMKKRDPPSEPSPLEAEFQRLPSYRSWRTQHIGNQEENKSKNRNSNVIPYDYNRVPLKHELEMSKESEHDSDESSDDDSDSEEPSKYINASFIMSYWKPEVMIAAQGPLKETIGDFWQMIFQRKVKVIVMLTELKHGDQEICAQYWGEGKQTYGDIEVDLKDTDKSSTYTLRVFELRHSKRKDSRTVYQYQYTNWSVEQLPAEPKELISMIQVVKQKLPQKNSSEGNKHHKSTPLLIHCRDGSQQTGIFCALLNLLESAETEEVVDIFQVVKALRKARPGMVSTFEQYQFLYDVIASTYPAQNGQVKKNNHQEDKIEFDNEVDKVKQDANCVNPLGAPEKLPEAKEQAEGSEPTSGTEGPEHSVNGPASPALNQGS

[5] = as §1; format: functional; parameters: scale not given: the % may be the effect or the level left; conditions: time 3 day
[6] = target: T3, M-phase inducer phosphatase 2 (Homo sapiens, UniProt P30305); test: Inhibition of human recombinant CDC25B expressed in Escherichia coli assessed as inhibition of phosphatase activity by measuring p-nitrophenyl phosphate measured after 60 mins
T3 sequence (P30305 whole entry): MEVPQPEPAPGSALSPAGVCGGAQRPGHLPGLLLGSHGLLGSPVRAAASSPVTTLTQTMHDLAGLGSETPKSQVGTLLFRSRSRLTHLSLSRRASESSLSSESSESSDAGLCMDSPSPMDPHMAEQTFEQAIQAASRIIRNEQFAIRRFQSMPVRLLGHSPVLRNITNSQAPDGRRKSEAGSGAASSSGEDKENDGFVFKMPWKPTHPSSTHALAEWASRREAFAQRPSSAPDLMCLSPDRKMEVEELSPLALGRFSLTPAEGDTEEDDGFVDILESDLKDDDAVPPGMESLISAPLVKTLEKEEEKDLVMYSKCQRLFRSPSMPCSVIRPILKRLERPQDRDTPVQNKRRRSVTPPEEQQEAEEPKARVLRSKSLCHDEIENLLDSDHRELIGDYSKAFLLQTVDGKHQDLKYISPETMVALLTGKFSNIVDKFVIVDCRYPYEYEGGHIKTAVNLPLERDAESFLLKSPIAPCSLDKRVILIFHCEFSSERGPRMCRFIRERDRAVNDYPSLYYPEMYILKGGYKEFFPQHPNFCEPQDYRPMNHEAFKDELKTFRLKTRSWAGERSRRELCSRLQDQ

IC50 [1] [µM]	inhibition [3] [%]	inhibition [4] [%]	IC50 [6] [µM]	Structure (SMILES)	Activity [2]	Activity [5] [%]
43	< 60	< 60		COC(=O)[C@]12C(=O)[C@@](C)(O)C(=O)[C@](C)(C[C@H]3C(C)=C4CC(=O)OC(C)(C)C4=CC[C@@]31C)[C@]21CO1	Active	
37	< 60	< 60		CC1=C2CC(=O)OC(C)(C)[C@]23O[C@@H]3[C@@H]2O[C@@]3(O)[C@@H](C)O[C@H]4OC(=O)[C@]5(C)C[C@H]1[C@]2(C)[C@@]31C(=O)O[C@@]415	Active	
	< 60	< 60		COC(=O)CC1=C(C)[C@@H]2C[C@@]3(C)C(=O)O[C@H]4O[C@@H](C)[C@@]5(O)O[C@@H]([C@@H]6O[C@]16C(C)(C)O)[C@]2(C)[C@@]5(C(=O)OC)[C@]43O		
	< 60	< 60		COC(=O)[C@]12[C@@H]3[C@H]4OC(=O)[C@]3(C)CC3=C(C)C5=C(C[C@H](O[C@]1(O)[C@H](C)O4)[C@@]32C)C(C)(C)OC(=O)C5		
21	< 60	< 60		COC(=O)[C@]12[C@@H]3[C@@H](O)O[C@@H](C)[C@@]14OC(=O)[C@]3(C)C[C@H]1C(C)=C3CC(=O)OC(C)(C)[C@@]35O[C@H]5[C@H](O4)[C@@]12C	Active	
	< 60	< 60		COC(=O)[C@]12C(=O)[C@H](C)O[C@@H]3OC(=O)[C@](C)(C[C@H]4C(C)=C5CC(=O)OC(C)(C)C5=CC[C@@]41C)[C@@H]32 [BERKELEYACETAL A]		<60
	< 60	< 60		COC(=O)[C@]12[C@@H]3[C@H]4OC(=O)[C@]3(C)C[C@H]3C(C)=C5CC(=O)OC(C)(C)[C@@]56O[C@H]6[C@H](O[C@]1(O)[C@H](C)O4)[C@@]32C		
	< 60	< 60	13	COC(=O)[C@@]12[C@@]3(C)[C@@H]4C=C5C(=CC(=O)OC5(C)C)[C@@](C)(O)[C@@H]3C[C@@]3(C)C(=O)O[C@@H](O[C@@H](C)[C@@]1(O)O4)[C@@]23O		
	< 60	< 60		CC1=C2CC(=O)OC(C)(C)C2=CC[C@@]2(C)[C@H]1C[C@@](C)(C(=O)O)[C@]13COC(=O)[C@@]12C(=O)[C@H](C)O3		<60
	< 60	< 60		COC(=O)CC1=C(C)[C@@H]2C[C@@]3(C)C(=O)O[C@H]4O[C@@H](C)[C@@]5(O)O[C@@H]([C@@H]6O[C@]16C(C)(C)O)[C@]2(C)[C@@]5(C(=O)OC)[C@H]43		
	< 60	< 60		COC(=O)[C@]12C3=C(C)O[C@@H]4OC(=O)[C@](C)(C[C@H]5C(C)=C6CC(=O)O[C@@]6(C(C)(C)O)[C@@H](C[C@@]51C)O3)[C@@H]42		
29	< 60	< 60		COC(=O)CC1=C(C)[C@H]2C[C@]3(C)C(=O)O[C@@H]4O[C@H](C)[C@]5(O)O[C@@H]([C@H]6O[C@@]16C(C)(C)O)[C@@]2(C)[C@@]51C(=O)O[C@@]413	Active	
	< 60	< 60		COC(=O)[C@]12C3=C(C)O[C@@H]4OC(=O)[C@](C)(C[C@H]5C(C)=C6CC(=O)O[C@@]6(C(C)(C)O)[C@H](O3)[C@H](O)[C@@]51C)[C@@H]42		
